According to article PMC11762957, “Rescue of Mutant CFTR Channel Activity by Investigational Co-Potentiator Therapy” (Biomedicines, 2025):

Target: T1, p.Arg334Trp-CFTR (Homo sapiens, UniProt P13569, R334W)
T1 construct: expressed in transfected cells
Assay: HS-YFP assay on a plate reader (CFTR-mediated I- influx), CFBE41o- cells co-expressing HS-YFP and p.Arg334Trp-CFTR
Type: cell-based
Procedure: Parental CFBE41o^− cells stably expressing HS-YFP (p.His148Gln-Ile152Leu) were cultured in minimum essential medium (MEM, #10-010-CV, Corning, VA, USA) supplemented with 10% fetal bovine serum (#LTI 10270-106, Gibco, Carlsbad, CA, USA). CFBE41o^− cells stably co-expressing HS-YFP (p.Phe46Leu-His148Gln-Ile152Leu) and p.Arg334Trp-CFTR were cultured in a similar medium including 2 µg mL^−1 puromycin (#P8833, Sigma-Aldrich, St. Louis, MO, USA). For the YFP assay of CFTR activity, cells were plated (30,000 cells/well) on 96-well clear-bottom, black-walled microplates (#655090, Greiner Bio-One, Kremsmünster, Austria). All cells were maintained in a humidified incubator (5% CO2) at 37 °C.
CFTR activity was determined by the HS-YFP microfluorimetric assay (described in detail in previous studies) using CFBE41o^− cells expressing HS-YFP together with stably expressed p.Arg334Trp-CFTR or transiently transfected with CFTR cDNA (variants p.Pro205Ser, p.Ser549Arg, p.Gly551Asp, p.Ser945Leu, and p.Gly1349Asp) cloned into pcDNA5. Briefly, cells were washed with phosphate-buffered saline (PBS; in mM: 137 NaCl, 2.7 KCl, 8.1 Na2HPO4, 1.5 KH2PO4, 1 CaCl2, and 0.5 MgCl2) and then incubated for 30 min at 37 °C with 60 μL of PBS plus Fsk (5 μM) and test compound(s) to stimulate CFTR channels. DMSO (vehicle) and VX-770 (1 μM) were used as negative and positive controls, respectively. All conditions were performed in triplicate on each plate. Thereafter, cells were transferred to a microplate reader (Tecan Infinite 200 Pro) equipped with high-quality excitation (485 ± 20 nm) and emission (535 ± 25 nm) filters for YFP. Each reading consisted of a continuous 14 s fluorescence recording with 2 s before and 12 s after injection of 165 μL of an iodide-containing solution (PBS with Cl^− replaced by I^−; final I^− concentration: 100 mM). Data were normalized to the initial background-subtracted fluorescence. To determine the I^− influx rate, the final 11 s of the data for each well were fitted with an exponential function to extrapolate the initial slope (dF/dt).
All the compounds (Scheme 1) were tested in CFBE41o^− cells co-expressing HS-YFP and p.Arg334Trp-CFTR to assess CFTR-mediated I^− influx based on fluorescence quenching. The cells were incubated for 30 min with Fsk (an adenyl cyclase activator that increases intracellular cAMP levels) plus the test compounds in two different concentrations (3 and 20 μM). Thereafter, the efficacy of the compounds in rescuing CFTR activity was determined by the YFP quenching rate and normalized to DMSO (negative control). […] Such an increase was equivalent to that of the cells treated with VX-770 or apigenin (used as positive controls).
Next, the active compounds were submitted for further analysis for evaluation of their potency and efficacy. To this aim, the compounds were retested as potentiators at various concentrations in the range 0.16–30 μM with Fsk on CFBE41o^− cells.

T1 sequence (P13569 whole entry R334W): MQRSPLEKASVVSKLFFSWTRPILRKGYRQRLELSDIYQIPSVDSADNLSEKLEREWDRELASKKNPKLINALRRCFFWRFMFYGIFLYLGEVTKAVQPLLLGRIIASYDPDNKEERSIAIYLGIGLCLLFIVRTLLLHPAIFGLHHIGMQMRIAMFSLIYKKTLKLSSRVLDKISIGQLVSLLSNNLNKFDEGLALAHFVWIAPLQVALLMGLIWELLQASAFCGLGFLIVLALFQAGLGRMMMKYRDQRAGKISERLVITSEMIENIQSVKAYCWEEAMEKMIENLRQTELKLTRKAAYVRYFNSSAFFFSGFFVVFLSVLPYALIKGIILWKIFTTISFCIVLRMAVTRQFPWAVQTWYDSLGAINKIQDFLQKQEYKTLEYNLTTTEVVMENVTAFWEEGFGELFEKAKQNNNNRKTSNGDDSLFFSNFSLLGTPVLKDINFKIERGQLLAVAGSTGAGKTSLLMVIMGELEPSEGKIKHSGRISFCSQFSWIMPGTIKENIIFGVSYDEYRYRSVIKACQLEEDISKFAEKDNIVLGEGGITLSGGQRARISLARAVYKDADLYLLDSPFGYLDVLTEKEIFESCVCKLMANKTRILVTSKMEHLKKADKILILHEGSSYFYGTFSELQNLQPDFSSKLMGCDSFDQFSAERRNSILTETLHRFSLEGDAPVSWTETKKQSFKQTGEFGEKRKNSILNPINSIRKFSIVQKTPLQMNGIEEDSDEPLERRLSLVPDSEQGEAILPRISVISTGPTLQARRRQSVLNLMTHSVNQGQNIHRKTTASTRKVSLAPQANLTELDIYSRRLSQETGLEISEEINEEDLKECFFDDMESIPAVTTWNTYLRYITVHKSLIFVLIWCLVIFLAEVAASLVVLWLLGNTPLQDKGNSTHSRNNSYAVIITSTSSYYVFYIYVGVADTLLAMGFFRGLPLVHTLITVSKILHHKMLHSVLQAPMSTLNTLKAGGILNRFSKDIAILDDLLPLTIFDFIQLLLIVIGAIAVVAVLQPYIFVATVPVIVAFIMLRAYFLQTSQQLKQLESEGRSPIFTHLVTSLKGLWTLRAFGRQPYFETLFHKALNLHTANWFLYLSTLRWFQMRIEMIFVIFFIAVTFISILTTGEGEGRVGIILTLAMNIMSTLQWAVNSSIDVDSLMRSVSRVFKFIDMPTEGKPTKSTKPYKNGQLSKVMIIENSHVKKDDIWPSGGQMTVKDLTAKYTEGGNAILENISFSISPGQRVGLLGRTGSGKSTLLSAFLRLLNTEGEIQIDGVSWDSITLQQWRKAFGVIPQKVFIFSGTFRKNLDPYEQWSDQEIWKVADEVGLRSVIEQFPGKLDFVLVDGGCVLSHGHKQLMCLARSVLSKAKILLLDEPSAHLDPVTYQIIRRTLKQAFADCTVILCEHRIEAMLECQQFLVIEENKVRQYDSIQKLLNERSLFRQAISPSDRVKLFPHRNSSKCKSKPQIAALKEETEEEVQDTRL

EC50 (CFBE41o- cells, with Fsk, concentrations 0.16–30 μM, read-out: EC50 (potentiation of p.Arg334Trp-CFTR activity)): 1010 nM | CFTR-mediated I- influx (YFP quenching rate normalized to DMSO) (test compound 3 and 20 μM, 30 min with Fsk 5 μM, vs DMSO): increase in CFTR-mediated I^− influx
SMILES: CCOC(=O)c1ccc(-n2cc(C(O)c3ccc(Br)cc3)nn2)cc1 (stereo not drawn) [LSO-150]
Fluorescence quenching rate in combination with ABBV-974 (LSO-150 3 μM or LSO-153 5 μM + ABBV-974 10 μM, Fsk 5 μM, vs single potentiator): further increase in the fluorescence quenching rate | Fluorescence quenching rate in combination with ABBV-3067 (LSO-150 3 μM or LSO-153 5 μM + ABBV-3067 10 μM, Fsk 5 μM, vs single potentiator): further increase in the fluorescence quenching rate | Fluorescence quenching rate in combination with VX-770 (LSO-150 3 μM or LSO-153 5 μM + VX-770 1 μM, Fsk 5 μM, vs single potentiator): further increase in the fluorescence quenching rate | Fluorescence quenching rate in combination with apigenin (LSO-150 3 μM or LSO-153 5 μM + apigenin 50 μM, Fsk 5 μM, vs single potentiator): equivalent cell-fluorescence quenching rate to that of each compound individually
